ChEMBL document CHEMBL1201862, “PubChem BioAssay data set” (2004)
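The compound was tested at five concentrations on cells cultured in 96-well plates, with a 48-hour exposure period. GI50: concentration for 50% inhibition of growth.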 Activity calls are given as the source filed them. No stated cut-off is given here; in the data, active = GI50 up to about 1.1 µM and inactive = higher.

Key:
Experiment in all cases: NCI anticancer screen, dose series, 48 h
SK-MEL-28 = system: SK-MEL-28
NCI-H460 = system: NCI-H460
BT-549 = system: BT-549
MDA-N = system: MDA-N
MDA-MB-231 = system: MDA-MB-231
NCI-H522 = system: NCI-H522
RPMI-8226 = system: RPMI-8226
RXF 393 = system: RXF 393
SW-620 = system: SW-620
OVCAR-4 = system: OVCAR-4
SNB-19 = system: SNB-19
MOLT-4 = system: MOLT-4
CCRF-CEM = system: CCRF-CEM
NCI-H226 = system: NCI-H226
NCI/ADR-RES = system: NCI/ADR-RES
MCF7 = system: MCF7
EKVX = system: EKVX
Hs-578T = system: Hs-578T
Malme-3M = system: Malme-3M
HOP-92 = system: HOP-92

Row | SMILES | GI50 (SK-MEL-28) | GI50 (NCI-H460) | GI50 (BT-549) | GI50 (MDA-N) | GI50 (MDA-MB-231) | GI50 (NCI-H522) | GI50 (RPMI-8226) | GI50 (RXF 393) | GI50 (SW-620) | GI50 (OVCAR-4) | GI50 (SNB-19) | GI50 (MOLT-4) | GI50 (CCRF-CEM) | GI50 (NCI-H226) | GI50 (NCI/ADR-RES) | GI50 (MCF7) | GI50 (EKVX) | GI50 (Hs-578T) | GI50 (Malme-3M) | GI50 (HOP-92)
1 | CCOP(=O)(/C=C\n1cc(C)c(=O)[nH]c1=O)OCC | > 100 µM (inactive) | > 100 µM (inactive) | > 100 µM (inactive) | > 100 µM (inactive) | > 100 µM (inactive) | 12.1 µM (inactive) | > 100 µM (inactive) | > 100 µM (inactive) | > 100 µM (inactive) | > 100 µM (inactive) | > 100 µM (inactive) | > 100 µM (inactive) | > 100 µM (inactive) | > 100 µM (inactive) | > 100 µM (inactive) | > 100 µM (inactive) | > 100 µM (inactive) |  |  | 
2 | COc1ccc(/C=C(/c2ccc(OC)cc2)c2c(Cl)cc(Cl)c(/C(=C\c3ccc(OC)cc3)c3ccc(OC)cc3)c2/N=N/c2ccccc2)cc1 | > 100 µM (inactive) | > 100 µM (inactive) | > 100 µM (inactive) |  | > 100 µM (inactive) | > 100 µM (inactive) | > 100 µM (inactive) | > 100 µM (inactive) | > 100 µM (inactive) | > 100 µM (inactive) | > 100 µM (inactive) | 88.7 µM (inactive) | 50.1 µM (inactive) |  | > 100 µM (inactive) | 62.1 µM (inactive) | > 100 µM (inactive) | > 100 µM (inactive) | > 100 µM (inactive) | > 100 µM (inactive)
3 | CC1(C)C2CCC(=O)C1CC2 (configuration not stated) | > 100 µM (inactive) | > 100 µM (inactive) |  | > 100 µM (inactive) | > 100 µM (inactive) | > 100 µM (inactive) | > 100 µM (inactive) | > 100 µM (inactive) | > 100 µM (inactive) |  | > 100 µM (inactive) | > 100 µM (inactive) | > 100 µM (inactive) | > 100 µM (inactive) | > 100 µM (inactive) | > 100 µM (inactive) |  | > 100 µM (inactive) | > 100 µM (inactive) | 
4 | COC(=O)CCC(NC(=S)N/N=C/c1ccccn1)C(=O)OC (configuration not stated) | > 100 µM (inactive) | > 100 µM (inactive) |  |  |  | > 100 µM (inactive) | > 100 µM (inactive) | > 100 µM (inactive) | > 100 µM (inactive) | > 100 µM (inactive) | > 100 µM (inactive) | > 100 µM (inactive) | > 100 µM (inactive) | > 100 µM (inactive) |  |  | > 100 µM (inactive) |  | > 100 µM (inactive) | 84.5 µM (inactive)
5 | CN(C(=O)Cc1ccc(Cl)c(Cl)c1)[C@@H]1CCCC[C@H]1[N+]1(C)CC=CC1 | > 100 µM (inactive) |  | > 100 µM (inactive) | > 100 µM (inactive) | > 100 µM (inactive) | > 100 µM (inactive) | > 100 µM (inactive) | > 100 µM (inactive) | > 100 µM (inactive) | > 100 µM (inactive) | > 100 µM (inactive) | > 100 µM (inactive) |  | > 100 µM (inactive) | > 100 µM (inactive) | > 100 µM (inactive) | > 100 µM (inactive) |  | > 100 µM (inactive) | > 100 µM (inactive)
6 | CN1c2ccccc2N(C)C2C1N(C)c1ccccc1N2C (configuration not stated) | 4.69 µM (inactive) | 20.8 µM (inactive) |  |  |  | 4.73 µM (inactive) | 5.11 µM (inactive) | 11.1 µM (inactive) | 7.85 µM (inactive) | 26 µM (inactive) | 18.8 µM (inactive) | 2.86 µM (inactive) | 2.81 µM (inactive) | 23.2 µM (inactive) |  |  | 61.5 µM (inactive) |  | 16.6 µM (inactive) | 10.4 µM (inactive)
7 | COC(=O)C(Cc1nc2ccc(Cl)cc2nc1O)/C(=N/NC(N)=O)C(=O)Nc1ccc(Cl)cc1 (configuration not stated) | > 100 µM (inactive) | > 100 µM (inactive) |  |  |  | > 100 µM (inactive) | > 100 µM (inactive) | > 100 µM (inactive) | > 100 µM (inactive) | > 100 µM (inactive) | > 100 µM (inactive) | > 100 µM (inactive) | > 100 µM (inactive) | > 100 µM (inactive) |  |  | 20.4 µM (inactive) |  | > 100 µM (inactive) | > 100 µM (inactive)
8 | CC(C)(CN1CCCCC1)C(=O)/C=C/c1ccc(Cl)c(Cl)c1 | 1.86 µM (inactive) | 1.65 µM (inactive) |  |  |  | 1.21 µM (inactive) | 2.52 µM (inactive) | 1.17 µM (inactive) | 1.37 µM (inactive) | 1.51 µM (inactive) | 3.15 µM (inactive) | 1.63 µM (inactive) | 1.09 µM (active) | 1.71 µM (inactive) |  |  | 1.76 µM (inactive) |  | 1.83 µM (inactive) | 1.03 µM (active)
9 | Nc1nnc(N)n1N | > 100 µM (inactive) | > 100 µM (inactive) |  |  |  | > 100 µM (inactive) | > 100 µM (inactive) | > 100 µM (inactive) | > 100 µM (inactive) | > 100 µM (inactive) | > 100 µM (inactive) | > 100 µM (inactive) | > 100 µM (inactive) | > 100 µM (inactive) |  |  | > 100 µM (inactive) |  | > 100 µM (inactive) | > 100 µM (inactive)
10 | CC12CC(c3ccccc3O1)C(C(=O)Nc1cccc(F)c1)C(=O)N2 (configuration not stated) | 78.2 µM (inactive) | 47.2 µM (inactive) | 23.5 µM (inactive) | 54 µM (inactive) |  | > 100 µM (inactive) | 40.7 µM (inactive) |  | 84.9 µM (inactive) | 30.1 µM (inactive) | > 100 µM (inactive) | 18.8 µM (inactive) | 26.3 µM (inactive) |  | 26.6 µM (inactive) | 44.7 µM (inactive) | 31.6 µM (inactive) | > 100 µM (inactive) | > 100 µM (inactive) | 
11 | O=c1cc(-c2ccccc2)oc2ccc(Oc3nnnn3-c3ccccc3)cc12 | > 55.8 µM (inactive) | > 100 µM (inactive) | 15.3 µM (inactive) | 5.15 µM (inactive) |  | 70.5 µM (inactive) | > 100 µM (inactive) | > 51.5 µM (inactive) | > 100 µM (inactive) | > 28.2 µM (inactive) | 33.2 µM (inactive) | > 100 µM (inactive) | > 100 µM (inactive) | 25 µM (inactive) | 78.2 µM (inactive) | > 45.9 µM (inactive) | 12.1 µM (inactive) | 28.3 µM (inactive) | > 100 µM (inactive) | 20.1 µM (inactive)
12 | c1ccc2c(c1)SCCCSCCSCCCS2 | > 100 µM (inactive) | > 100 µM (inactive) | > 100 µM (inactive) | > 100 µM (inactive) | 57.3 µM (inactive) | > 100 µM (inactive) |  |  | > 100 µM (inactive) | 93.5 µM (inactive) | > 100 µM (inactive) | > 100 µM (inactive) | > 100 µM (inactive) |  | > 100 µM (inactive) | > 100 µM (inactive) | 99.8 µM (inactive) |  |  | 48.9 µM (inactive)
13 | COc1cc2c(cc1O)[C@H](C)C(c1ccc(Cl)cc1)O2 (some centres not stated) | 28.6 µM (inactive) | 17.9 µM (inactive) |  |  |  | 13.3 µM (inactive) | 6.34 µM (inactive) | 24.6 µM (inactive) | 17.4 µM (inactive) | 32.1 µM (inactive) | 74.8 µM (inactive) | 15.3 µM (inactive) | 14.5 µM (inactive) | 24.9 µM (inactive) |  |  | 23 µM (inactive) |  | 24.6 µM (inactive) | 17.3 µM (inactive)
14 | CCOC(=O)[C@H]1C[C@]23CN(C(=O)OC(C)(C)C)CC[C@H]2CCC2(SCCCS2)[C@@H]3N1C | 91 µM (inactive) | 33.3 µM (inactive) | 50.2 µM (inactive) | 30.1 µM (inactive) |  | 27.5 µM (inactive) | 20.4 µM (inactive) | 33.8 µM (inactive) | 47.8 µM (inactive) | 16 µM (inactive) | 76 µM (inactive) | 24.3 µM (inactive) | 29.1 µM (inactive) | 29.6 µM (inactive) | 27.2 µM (inactive) | 38.7 µM (inactive) | 27.3 µM (inactive) | 51.6 µM (inactive) | 28.4 µM (inactive) | 14.1 µM (inactive)
15 | S=c1[nH]nc(Cn2c3ccc(Br)cc3c3nc4ccccc4nc32)o1 | 27.3 µM (inactive) | 36.9 µM (inactive) | > 63.2 µM (inactive) | 41 µM (inactive) | > 45.4 µM (inactive) | 20.2 µM (inactive) | 4.29 µM (inactive) | 14.8 µM (inactive) | 18.7 µM (inactive) |  | 53 µM (inactive) | 27.1 µM (inactive) | 24.7 µM (inactive) | > 77.3 µM (inactive) | 74.5 µM (inactive) | 39 µM (inactive) | 71.6 µM (inactive) |  | 42.3 µM (inactive) | 
16 | C=C1CCC[C@@H](C)C(O)[C@@H]2OC(=O)C(=C)[C@@H]2C[C@@H](OC(C)=O)[C@@]2(C)CC[C@@H]1O2 (some centres not stated) | 7.98 µM (inactive) |  | 7.52 µM (inactive) |  | 8.36 µM (inactive) | 0.916 µM (active) | 8.85 µM (inactive) | 6.49 µM (inactive) | 8.3 µM (inactive) | 13.7 µM (inactive) | 45.2 µM (inactive) | 4.84 µM (inactive) | 1.54 µM (inactive) | 8.49 µM (inactive) | 6.78 µM (inactive) | 5.55 µM (inactive) | 7.62 µM (inactive) | 8.67 µM (inactive) |  | 7.96 µM (inactive)
17 | COCP1(=S)OC(C)CCN1C(C)C (configuration not stated) |  | > 100 µM (inactive) | > 100 µM (inactive) |  | > 100 µM (inactive) |  | > 100 µM (inactive) |  | > 100 µM (inactive) | > 100 µM (inactive) | > 100 µM (inactive) |  |  | > 100 µM (inactive) | > 100 µM (inactive) | > 100 µM (inactive) | > 100 µM (inactive) |  | > 100 µM (inactive) | 
